Data on 3 compounds can be found in patent US12310986B2, “Compositions and methods for the treatment of cancer cells by induction of cytotoxic oxidative stress” (Board of Regents, The University of Texas System, priority 2018, dated 2025).

Data set [1] relates to HCT116 cells. The data set is described as follows: Apoptosis flow cytometric assay, Annexin V FITC, HCT116 cells. The format is cell-based, human. The note with it: HCT116, 72 hours; VC or D-VC 1 mM, ATO 5 μM. As for the experimental part: FIG. 2: Apoptotic flow cytometric analysis of HCT116 cancer following drug treatments. HCT116 cells were treated with the drugs as described in the FIG. 1 and following treatments the cells were stained with Annexin-V FITC and sorted.
FIG. 3: Graphical representation of apoptosis by flow cytometry data. Apoptotic flow cytometric data shown in the FIG. 2 is presented as a graph.
A general note: A flow cytometer gives signals particle by particle.

In data set [2] the test system is HCT116 cells. The data set is described as follows: Reactive oxygen species (ROS) detection by flow cytometry, Mito Sox Red, HCT116 cells. Type of data set: cell-based, human. The following applies: VC or D-VC 1 mM, ATO 5 μM. As to the method: FIG. 4: Detection of reactive oxygen species (ROS) by flow cytometry. HCT116 cells were treated with the indicated compounds as described in the FIG. 1 and analyzed by flow cytometry to detect the presence of reactive oxygen species by Mito Sox Red reagent. Mito Sox Red is a reagent from Invitrogen™ catalog #LSM360084
FIG. 5: Graphical representation of the presence of reactive oxygen species (ROS) as detected by flow cytometry. The ROS detection data shown in the FIG. 4 is presented as a graph.
It was anticipated that the cause of cytotoxic stress and apoptosis was the accumulation of reactive oxygen species (ROS), so HCT116 cells were treated as above and assayed for the presence of ROS by flow cytometry (FIG. 4). […] Treatment with 5 μM ATO increased the cells showing ROS accumulation to 26% (FIGS. 4 and 5).

Data set [3] concerns HCT116 xenograft tumors. Nature of the data set: HCT116 (KRAS mutant) xenograft tumors in nude mice. The following applies: VC or D-VC 1.5 g/kg, ATO 7 mg/kg; for effect on tumor growth compared to PBS (control) injections: 15 injections; for scarring on tumors (mice with scarring): 5 mice per group; for tumor weight compared to PBS treated tumors: after 15 injections, one way ANOVA. The format is in vivo. As for the experimental part:
Pictured are the xenograft tumors of each of the 5 mice per treatment condition. Mice were injected intraperitoneally with PBS (control), Vitamin C (1.5 g/kg), D-Vitamin C (1.5 g/kg), ATO 7 mg/kg), ATO (7 mg/kg)+Vitamin C (1.5 g/kg) or ATO (7 mg/kg)+D-Vitamin C (1.5 g/kg). Mice were injected daily for 6 days and after 6th injection mice were rested for one day.
Pictured are the xenograft tumors of each of the 5 mice per treatment condition as described in FIG. 6 after 12 injections (2 weeks of treatment).
To avoid glucose fluctuations in blood, the food was withdrawn from mice 2 hrs prior drug injections and food was given back to mice after 2 hrs of the VC or D-VC injection.
1.5 million human HCT116 (KRAS mutant) cancer cells were injected into nude mice, 5 mice per experimental group. After 10 days, and after when tumors reached at least 0.8 cm in size, mice were injected daily with either PBS, PBS+1.5 g/kg vitamin C, PBS+7 mg/kg ATO. PBS+7 mg/kg ATO+1.5 g/kg vitamin C, PBS+1.5 g/kg D-Vitamin C, or PBS+7 mg/kg ATO+1.5 g/kg D-Vitamin C. The mice were injected daily, 6 times per week, and rested one day per week, for a total of 15 total drug injections. […] Initially, ATO was injected at 3 mg/kg, while vitamin C or D-VC were injected at 1 g/kg. The following day, ATO was used at 7 mg/kg, while vitamin C and D-VC were used at […].
The injection scheme was ATO injection/2 hour gap/vitamin C or D-VC injection. […] Further, it is also known that the effect of vitamin C treatment on KRAS mutant cancer cells is glucose dependent, To avoid glucose fluctuations in the blood and enhance the effect of vitamin C and D-VC, the drug injections were performed following withdrawal of the food from mice 2 hours prior ATO injections, and the food was only provided again 2 hours following the vitamin C or D-VC injections.

In data set [4] the test system is HCT116 cancer cells. The data set is described as follows: Cytotoxicity in colorectal HCT116 cancer cells, 72 hours treatment (cell images). The format is cell-based, human. The following applies: HCT116, 72 hours; VC or D-VC 1 mM, ATO 5 μM; compared to buffer. As to the method: Colorectal HCT116 cancer cells were treated with the indicated solutions for 72 hours: control (phosphate buffered saline, PBS, was added to the culture medium in 1:1000 dilution), VC 1 mM (Vitamin C was used at 1 mM concentration), D-VC 1 mM (D-Vitamin C was used at 1 mM concentration), ATO 5 μM (Arsenic Trioxide was used at 5 μM concentration) and the combination of VC 1 mM with ATO 5 μM or D-VC 1 mM with ATO 5 μM. The cell images are shown with the labeling indicating cell treatments.
Colorectal HCT116 cancer cells were treated for 72 hours with PBS, a 1 mM Vitamin C (VC) solution, 1 mM D-Vitamin CVC (D-VC also referred as D-ascorbic acid), 5 μM arsenic trioxide (ATO), Vitamin C and ATO (VC/ATO), or D-VC and ATO (D-VC/ATO) (FIG. 1).

Setting [5] is: after 12 injections (2 weeks of treatment).

“Also recorded” adds a separate entry of the source.

For `O=C1O[C@@H]([C@H](O)CO)C(O)=C1O` [D-VC, D-ascorbic acid], in data set [1], the “apoptosis (Annexin V FITC)” value is “level of apoptosis similar to the buffer control”. In addition, the “cells accumulating ROS” value in data set [2] is on record as “about 5%”. Besides, in data set [3], the “effect on tumor growth compared to PBS (control) injections” value (shortened to “effect on tumor growth compared to PBS”) is “inhibitory effect on tumor growth; also recorded: appeared to be more effective alone but its effect was not consistent” and the “tumor weight compared to PBS treated tumors” value is “lower compared to the PBS treated tumors, however these differences were not statistically significant”. Also, the “scarring on tumors (mice with scarring)” value in data set [3] (after 9 injections / within the first week of injections, intraperitoneally) is given as 2/5. In addition, in data set [3] (setting [5]), the “scarring on tumors (mice with scarring)” value was 2/5.

Regarding `O=C1O[C@H]([C@@H](O)CO)C(O)=C1O` [VC, L-ascorbic acid], in data set [1], the “apoptosis (Annexin V FITC)” value is “level of apoptosis similar to the buffer control”. For the same compound, the “cells accumulating ROS” value in data set [2] was “about 5%”. Also, in data set [3], the “effect on tumor growth compared to PBS” value is reported as “inhibitory effect on tumor growth” and the “tumor weight compared to PBS treated tumors” value is “lower compared to the PBS treated tumors, however these differences were not statistically significant”.

As for arsenic trioxide [ATO], the cytotoxicity result in data set [4] is given as “mild cytotoxic impact”. Besides, the “apoptosis (Annexin V FITC)” value in data set [1] is “low increase in apoptosis over the buffer control”. Further, the “cells accumulating ROS” value in data set [2] is on record as 26%. Further, in data set [3], the “effect on tumor growth compared to PBS” value is given as “inhibitory effect on tumor growth” and the “tumor weight compared to PBS treated tumors” value is “lower compared to the PBS treated tumors, however these differences were not statistically significant”. Moreover, the “scarring on tumors (mice with scarring)” value in data set [3] (setting [5]) is recorded as 2/5.
